Columns and labels:
SH-SY5Y cells [1] = assay: Aβ-induced SH-SY5Y viable cell number, cell counting by TC10 System; assay type: cell-based, human; conditions: Aβ (1-42) 1 μg/mL, 24 hours; 10^−7 M
Method: (§1) Glial cells (C6) were cultured in 10% FBS supplemented DMEM, and SHY-5SY were cultured in 10% FBS supplemented RPMI. Neuronal cells were differentiated with retinoic acid. After 24 hours of starvation glial cells and SHY-5SY were treated with CBDV (10^−7M), CBD (10^−7 M), CBDVA (10^−7 M), CBDA (10^−7 M) and THCVA (10^−7 M) in presence or absence of Aβ (1-42) (1 μg/mL) for following 24 hours.
In another set of experiments cell counting was performed by TC10 System (BIO-RAD), according to manufacturing instruction.

SH-SY5Y cells [2] = assay: Aβ-induced SH-SY5Y cell viability, MTT/formazan test (Example 2); assay type: cell-based, human; conditions: Aβ (1-42) 1 μg/mL, 24 hours; 10^−7 M
Method: as §1
(§2) Cell activation/viability was determined using 3(4,5-dimethylthiazol-2yl)2,5-diphenyl-2H-tetrazolium bromide (MTT) assay, an assay based on the ability of viable cells to convert MTT in formazan salt. Briefly, the cells were plated in 96-well culture plates at the density of 5×10^3 cells/well and allowed to adhere at 37° C. for 2 hours. Thereafter, the medium was replaced with fresh medium and the cells were treated as above described. After 24 hours 25 μl MTT (5 mg/ml in DMEM) was added to the cells and incubated for additional 3 hours at 37° C. After this time, the cells were lysed and the dark blue crystals solubilized with 125 μl of a solution containing 50% (v/v) N,N, dimethylformamide, 20% (w/v) sodium dodecylsulphate, with an adjusted pH of 4.5. The optical density of each well was measured with a microplate spectrophotometer (Titertek Multiscan MCC/340) equipped with a 620 nm filter.

Aβ-stimulated C6 cells [3] = assay: Aβ-stimulated C6 cell viability/proliferation, MTT assay; assay type: cell-based; conditions: Aβ (1-42) 1 μg/mL, 24 hours
Method: (§3) The cannabinoids tested were CBG, CBC, and CBDV. The cannabinoids were isolated from cannabis plant material and purified. The cannabinoids were tested at a concentration of 10^−9 to 10^−6 M. The cannabinoids were dissolved in DMSO at the concentration of 10^−2M and then diluted in DMEM to their final concentration.
(§4) Glial cells (C6) were cultured in 10% FBS supplemented DMEM. PC12 neuronal cell were cultured in 10% FBS plus 5% HS supplemented DMEM and SHY-5SY neuronal cells were cultured in 10% FBS supplemented RPMI. Neuronal cells were differentiated with retinoic acid. After 24 hours of starvation glial cells, differentiated PC12 and SHY-5SY neuronal cells were treated with the cannabinoids, CBC, CBG and CBDV, in the presence or absence of 1 μg/mL of Aβ (1-42) for the following 24 hours.
(§5) Cell viability was determined using 3(4,5-dimethylthiazol-2yl)2,5-diphenyl-2H-tetrazolium bromide (MTT) assay which is an assay based on the ability of viable cells to convert MTT in formazan salt.
as §2, with “The” for “Cell activation/viability was determined using 3(4,5-dimethylthiazol-2yl)2,5-diphenyl-2H-tetrazolium bromide (MTT) assay, an assay based on the ability of viable cells to convert MTT in formazan salt. Briefly, the”

Aβ-stimulated C6 cells [4] = assay: Nitrite (NO) production in Aβ-stimulated C6 cells, Griess reaction; assay type: cell-based; conditions: Aβ (1-42) 1 μg/mL, 24 hours; cannabinoid 10^−9 to 10^−6 M
Method: as §3, §4
Production of NO was assayed by measuring the amount of nitrite in the culture medium of C6 cells 24 hours after Aβ(1-42) (1 μg/mL) stimulation using a spectrophotometric assay based on Griess reaction.

SH-SY5Y cells [5] = assay: Aβ-induced SH-SY5Y cell viability, MTT assay (Example 1); assay type: cell-based, human; conditions: Aβ (1-42) 1 μg/mL
Method: as §3, §4, §5
as §2, with “The” for “Cell activation/viability was determined using 3(4,5-dimethylthiazol-2yl)2,5-diphenyl-2H-tetrazolium bromide (MTT) assay, an assay based on the ability of viable cells to convert MTT in formazan salt. Briefly, the”

[6] = test system: neuronal cultures exposed to glutamate; conditions: in vitro, pure/synthetic preparations; cited from earlier work
Bcl2 = Bcl2 protein expression in Aβ-treated SH-SY5Y cells, western blot; assay type: cell-based, human; conditions: Aβ (1-42) 1 μg/mL, 24 hours, 10^−7 M
Method: as §1
(§6) Western blot analysis was performed on C6 and SHY-5SY cell lysate. Briefly cells were rapidly homogenized in 60 μl of ice-cold hypotonic lysis buffer [10 mM HEPES, 1.5 mM MgCl2, 10 mM KCl, 0.5 mM phenylmethylsulfonyl fluoride, 1.5 μg/mL soybean trypsin inhibitor, pepstatin A 7 μg/mL, leupeptin 5 μg/mL, 0.1 mM benzamidine, 0.5 mM dithiothreitol (DTT)]. After this time, the cytoplasmic fractions were then obtained by centrifugation at 13000 g for 10 min and protein concentration in the samples was determined with Bio-Rad assay kit according to the manufacturer's instructions. Immunoblotting analysis of iNOS, COX-2, TNF-a, Bcl2 and actin were performed on a cytosolic fraction. Protein concentration was determined and equivalent amounts (50 μg) of each sample were separated under reducing conditions in 12% SDS-polyacrylamide minigel. […] The protein bands were scanned and densitometrically analyzed with a GS-800 imaging densitometer (Bio-Rad Laboratories, Calif., USA).

COX2 = COX2 protein expression in Aβ-stimulated C6 cells, western blot; assay type: cell-based; conditions: Aβ (1-42) 1 μg/mL, 24 hours, 10^−7 M
Method: as §1, §6

iNOS [7] = assay: iNOS mRNA level in Aβ-stimulated C6 cells, semi-quantitative RT-PCR; assay type: cell-based; conditions: Aβ (1-42) 1 μg/mL, 24 hours; 10^−7 M
Method: as §4
The mRNA level of iNOS in C6 cells was determined using the semi-quantitative RT-PCR method. The PCR-primers were selected according to appropriate DNA sequences. 15 μl aliquots of PCR products were electrophoretically fractionated through 1% agarose gel containing the fluorescent Vistra green dye. Labelling intensity of the PCR product, which is linear to the amount of DNA, was quantified using the Molecular Imager FX and Quantity One software (Biorad, Milan, Italy).

iNOS [8] = assay: iNOS protein expression in Aβ-stimulated C6 cells, western blot; assay type: cell-based; conditions: Aβ (1-42) 1 μg/mL, 24 hours, 10^−7 M
Method: as §1, §6

TNF-alpha [9] = assay: TNF-alpha release in supernatant of Aβ-treated C6 cells, ELISA; assay type: cell-based; conditions: Aβ (1-42) 1 μg/mL, 24 hours, 10^−7 M
Method: as §1
ELISA essay was performed on supernatants of cultured cells. Nunc Maxisorp 96-well microtiter plates (Gibco, Paisley, UK) were coated overnight at 4° C. with 1 μg/well of specific monoclonal antibody anti-TNF, diluted in 0.5 M Na2CO3. The wells were washed three times and then blocked with phosphate-buffered saline (PBS) containing 0.05% (v/v) Tween 20 and 0.3% Fetal Bovine Serum (ELISA buffer) for 30 min at room temperature. The standards and samples were added in a 100-μl volume and incubated at 37° C. for 1.5 h. The standard curve was generated using 0.1 ng to 1 μg/well of purified protein, diluted in ELISA buffer. Following four washes in ELISA buffer, monoclonal antibodies were diluted and added to the wells for 1 h. […] The colour reaction was stopped by addition of HCl and optical densities at 490 nm were measured using a microplate reader.

TNF-alpha [10] = assay: TNF-alpha protein expression in Aβ-stimulated C6 cells, western blot; assay type: cell-based; conditions: Aβ (1-42) 1 μg/mL, 24 hours, 10^−7 M
Method: as §1, §6

[11] = in vivo, pure CBD; cited from earlier work

C=C(C)[C@@H]1CCC(C)=C[C@H]1c1c(O)cc(CCC)c(C(=O)O)c1O [CBDVA, cannabidivarin acid]
Aβ induced SH-SY5Y cell death (viable cell number, cell counting) (SH-SY5Y cells [1]): able to prevent
Aβ SH-SY5Y cell death (viability, MTT/formazan test) (SH-SY5Y cells [2]): able to prevent

C=C(C)[C@@H]1CCC(C)=C[C@H]1c1c(O)cc(CCCCC)c(C(=O)O)c1O [CBDA]
Aβ induced SH-SY5Y cell death (viable cell number, cell counting) (SH-SY5Y cells [1]): No significant effect
Aβ SH-SY5Y cell death (viability, MTT/formazan test) (SH-SY5Y cells [2]): had no effect

CCCCCc1cc(O)c2c(c1)OC(C)(CCC=C(C)C)C=C2 (stereo not shown) [CBC, cannabichromene]
Aβ-stimulated C6 cell viability (cell proliferation, MTT) (Aβ-stimulated C6 cells [3]; 10^−7 to 10^−6 M): significantly inhibited cell proliferation
nitrite production in Aβ-stimulated C6 cells (Aβ-stimulated C6 cells [4]): significantly reduced
Aβ-induced SH-SY5Y cell death (cell viability, MTT) (SH-SY5Y cells [5]; 10^−6 M (highest concentration used)): effective only at the highest concentration used

CCCCCc1cc(O)c2c(c1)OC(C)(C)[C@@H]1CCC(C)=C[C@@H]21 [THC, tetrahydrocannabinol]
prevention of glutamate toxicity [6]: could be prevented to some extent

CCCCCc1cc(O)c(C/C=C(\C)CCC=C(C)C)c(O)c1 [CBG, cannabigerol, reference compound]
Aβ-stimulated C6 cell viability (cell proliferation, MTT) (Aβ-stimulated C6 cells [3]; 10^−9 to 10^−6 M): had no effect
nitrite production in Aβ-stimulated C6 cells (Aβ-stimulated C6 cells [4]): had no effect
Aβ-induced SH-SY5Y cell death (cell viability, MTT) (SH-SY5Y cells [5]; 10^−9 to 10^−6 M): had no effect

C=C(C)[C@@H]1CCC(C)=C[C@H]1c1c(O)cc(CCC)cc1O [CBDV, cannabidivarin]
Aβ-stimulated C6 cell viability (cell proliferation, MTT) (Aβ-stimulated C6 cells [3]; 10^−8 to 10^−6 M): significantly inhibited cell proliferation
Bcl2 protein expression (Bcl2): significantly restored
nitrite production in Aβ-stimulated C6 cells (Aβ-stimulated C6 cells [4]): significantly reduced
COX2 protein expression (COX2): significant reduction
Aβ induced SH-SY5Y cell death (viable cell number, cell counting) (SH-SY5Y cells [1]): able to prevent
iNOS mRNA transcription in Aβ-stimulated C6 cells (iNOS [7]): significant reduction of mRNA transcription
Aβ SH-SY5Y cell death (viability, MTT/formazan test) (SH-SY5Y cells [2]): able to prevent
Aβ-induced SH-SY5Y cell death (cell viability, MTT) (SH-SY5Y cells [5]; 10^−9 to 10^−6 M): able to prevent
iNOS protein expression (iNOS [8]): significant reduction
TNF-alpha release in the supernatant of cells (TNF-alpha [9]): significantly reduced
TNF-alpha protein expression (TNF-alpha [10]): significant reduction

CCCc1cc2c(c(O)c1C(=O)O)[C@@H]1C=C(C)CC[C@H]1C(C)(C)O2 [THCVA]
Aβ induced SH-SY5Y cell death (viable cell number, cell counting) (SH-SY5Y cells [1]): No significant effect
Aβ SH-SY5Y cell death (viability, MTT/formazan test) (SH-SY5Y cells [2]): had no effect

C=C(C)[C@@H]1CCC(C)=C[C@H]1c1c(O)cc(CCCCC)cc1O [CBD, cannabidiol]
prevention of glutamate toxicity [6]: could be prevented to some extent
Aβ induced SH-SY5Y cell death (viable cell number, cell counting) (SH-SY5Y cells [1]): able to prevent
Aβ SH-SY5Y cell death (viability, MTT/formazan test) (SH-SY5Y cells [2]): able to prevent
difference between treated and placebo treated animals [11]: failed to find a difference

Source: patent US10258580B2, “Cannabinoids for use in the treatment of neurodegenerative diseases or disorders” (priority 2011, dated 2019)
